Measurements: patent publication US10130630B2, “BTK inhibitors” (MERCK SHARP & DOHME CORP., priority 2014, dated 2018)

How the values were obtained:
[1] = biological target: T1, BTK enzyme (full-length BTK, hBTK) (Homo sapiens, UniProt Q06187); assay: Btk enzyme activity assay (LANCE TR-FRET); assay type: biochemical; conditions: 50 pM hBTK, 25 μM ATP, 60 minute compound and enzyme incubation, read-out: BTK binding IC50
T1 construct: recombinant protein from baculovirus-transfected Sf9 cells: full-length BTK, 6HIS-tag cleaved; 6HIS (cleaved yes); made in house; host or cells: baculovirus-transfected Sf9 cells
Description: BTK enzymatic activity was determined with the LANCE (Lanthanide Chelate Excite) TR-FRET (Time-resolved fluorescence resonance energy transfer) assay. […] To each well of a black non-binding surface Corning 384-well microplate (Corning Catalog #3820), 5 nL of compound (2000 fold dilution in final assay volume of 10 μL) was dispensed, followed by the addition of 7.5 μL of 1× kinase buffer (50 mM Hepes 7.5, 10 mM MgCl2, 0.01% Brij-35, 1 mM EGTA, 0.05% BSA & 1 mM DTT) containing 5.09 pg/μL (66.67 pM) of BTK enzyme (recombinant protein from baculovirus-transfected Sf9 cells: full-length BTK, 6HIS-tag cleaved). Following a 60 minute compound and enzyme incubation, each reaction was initiated by the addition of 2.5 μL 1× kinase buffer containing 8 μM biotinylated “A5” peptide (Biotin-[…]-NH2) (SEQ.ID.NO.: 1), and 100 μM ATP. The final reaction in each well of 10 μL consists of 50 pM hBTK, 2 μM biotin-A5-peptide, and 25 μM ATP. Phosphorylation reactions were allowed to proceed for 120 minutes. Reactions were immediately quenched by the addition of 20 uL of 1× quench buffer (15 mM EDTA, 25 mM Hepes 7.3, and 0.1% Triton X-100) containing detection reagents (0.626 nM of LANCE-Eu-W1024-anti-phosphoTyrosine antibody, PerkinElmer and 86.8 nM of Streptavidin-conjugated Dylight 650, Dyomics/ThermoFisher Scientific). After 60 minutes incubation with detection reagents, reaction plates were read on a PerkinElmer EnVision plate reader using standard TR-FRET protocol. Briefly, excitation of donor molecules (Eu-chelate:anti-phospho-antibody) with a laser light source at 337 nm produces energy that can be transferred to Dylight-650 acceptor molecules if this donor:acceptor pair is within close proximity. Fluorescence intensity at both 665 nm (acceptor) and 615 nm (donor) are measured and a TR-FRET ratio calculated for each well (acceptor intensity/donor intensity). IC50 values were determined by 4 parameter robust fit of TR-FRET ratio values vs. (Log10) compound concentrations.
The following Table 2 provides specific IC50 values for all the examples. The IC50 values set forth below were determined according to Assay method described above.

[2] = tested on: adenosine uptake into HeLa cells; assay: [3H]Adenosine uptake assay in HeLa cells; assay type: cell-based; conditions: Homo sapiens, HeLa, 60 minutes uptake, read-out: ADU inhibition IC50 (adenosine uptake inhibition potency)
Description: Compounds were also screened in an adenosine uptake functional cellular assay using the protocol described below.
Adenosine uptake activity was determined by monitoring the accumulation of tritiated adenosine into HeLa cells (ATCC catalog # CCL-2) using a PMT-based radiometric detection instrument. In this assay, the potency (IC50) of each compound was determined from a ten point (1:3 serial dilution; final compound concentration range in assay from 10 μM to 0.032 nM) titration curve using the following outlined procedure. To each well of a 96-well CytoStar-T scintillating microplate (Perkin Elmer Catalog # RPNQ0163), 25 000 HeLa cells in 100 μL of growth medium comprising: Minimum Essential Media (Life Technologies Catalog # 11095-080)+10% (v/v) foetal bovine serum (FBS; Sigma Aldrich Catalog # F2442) was added. These cells were incubated overnight at 37° C. in a humidified atmosphere with 5% (v/v) CO2. After this time the growth medium was removed and replaced with 40 μL assay medium comprising: Hanks balanced salts solution (HBSS; Thermo Fisher Catalog # SH30268.01)+5% (v/v) FBS. Compound stock solutions in DMSO were diluted in assay medium to 2.5× final compound concentration maintaining a constant DMSO concentration of 0.25% (v/v). 40 μL of compound in assay medium was dispensed into individual wells of the Cytostar-T plates and the plates were incubated for 30 minutes under ambient laboratory conditions. Following this incubation, 20 μL of 500 nM [^3H]adenosine (American Radiolabeled Chemicals Inc. Catalog # ART0287) in assay medium was added and incubated for a further 60 minutes under ambient laboratory conditions. The amount of radiolabel accumulation was then determined using a Perkin Elmer Topcount NXT microplate reader. In brief, HeLa cells adhere to the bottom of the Cytostar-T plate, uptake of [^3H]adenosine into these cells brings the radiolabel into sufficient proximity to excite the scintillant in the base of the plates. These events are captured by single PMT, time-resolved coincidence counting. IC50 values were determined by 4 parameter robust fit of counts per second values vs. (Log10) compound concentrations.

T1 sequence (Q06187 whole entry): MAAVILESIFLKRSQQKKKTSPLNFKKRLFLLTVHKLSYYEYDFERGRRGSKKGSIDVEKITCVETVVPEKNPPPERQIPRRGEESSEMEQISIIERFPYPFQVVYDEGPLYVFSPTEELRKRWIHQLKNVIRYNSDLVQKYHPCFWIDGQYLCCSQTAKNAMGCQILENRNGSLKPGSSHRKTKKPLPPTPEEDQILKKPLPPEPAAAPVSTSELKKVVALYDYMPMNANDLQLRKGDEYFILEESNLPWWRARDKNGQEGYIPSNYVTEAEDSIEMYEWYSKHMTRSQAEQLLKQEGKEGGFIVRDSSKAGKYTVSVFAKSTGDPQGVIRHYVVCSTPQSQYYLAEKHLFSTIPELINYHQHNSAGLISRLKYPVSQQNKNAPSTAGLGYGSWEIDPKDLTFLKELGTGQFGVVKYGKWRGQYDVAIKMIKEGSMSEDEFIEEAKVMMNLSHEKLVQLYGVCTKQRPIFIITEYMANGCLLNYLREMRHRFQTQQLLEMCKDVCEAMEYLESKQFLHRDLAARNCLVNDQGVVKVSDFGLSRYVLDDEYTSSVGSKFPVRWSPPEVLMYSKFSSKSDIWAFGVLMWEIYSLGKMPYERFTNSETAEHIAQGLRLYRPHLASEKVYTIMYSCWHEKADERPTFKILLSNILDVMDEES

SMILES	IC50 [1]	IC50 [2]
CCOc1cc(C(=O)Nc2cc(C(F)(F)F)ccn2)cc(F)c1-c1nc([C@@H]2CC[C@@H]3N(C2)C(=O)CC32CC2)n2ccnc(N)c12 [Compound 20, 4-{8-amino-3-[(6′R,8a′S)-3′-oxohexahydro-5′H-spiro[cyclopropane-1,1′-indolizin]-6′-yl]imidazo[1,5-a]pyrazin-1-yl}-3-ethoxy-5-fluoro-N-[4-(trifluoromethyl)pyridin-2-yl]benzamide]	0.171 nM	871 nM
CCOc1cc(C(=O)Nc2cc(C(F)(F)F)ccn2)ccc1-c1nc([C@H]2CN3C(=O)[C@@H]4CCCN4C[C@@H]3CO2)n2ccnc(N)c12 [Compound 36, 4-{8-amino-3-[(3R,6aS,11aR)-6-oxooctahydro-1H,6H-pyrrolo[1′,2′:4,5]pyrazino[2,1-c][1,4]oxazin-3-yl]imidazo[1,5-a]pyrazin-1-yl}-3-ethoxy-N-[4-(trifluoromethyl)pyridin-2-yl]benzamide]	1 nM	1250 nM
Nc1nccn2c([C@@H]3CC[C@H]4C(=O)C5(CC5)C(=O)N4C3)nc(-c3ccc(C(=O)Nc4cc(C5CC5)ccn4)cc3)c12 [Compound 9, 4-{8-amino-3-[(6′R,8a′S)-1′,3′-dioxohexahydrospiro[cyclopropane-1,2′-indolizin]-6′-yl]imidazo[1,5-a]pyrazin-1-yl}-N-(4-cyclopropylpyridin-2-yl)benzamide]	1.62 nM	183 nM
CCOc1cc(C(=O)Nc2cc(C(F)(F)F)ccn2)ccc1-c1nc([C@H]2CC[C@@H]3CC4(CC4)C(=O)N3C2)n2ccnc(N)c12 [Compound 48, 4-{8-amino-3-[(6′S,8a′R)-3′-oxohexahydrospiro[cyclopropane-1,2′-indolizin]-6′-yl]imidazo[1,5-a]pyrazin-1-yl}-3-ethoxy-N-[4-(trifluoromethyl)pyridin-2-yl]benzamide]	1.19 nM	998 nM
CCOc1cc(C(=O)Nc2cc(C(F)(F)F)ccn2)ccc1-c1nc([C@@H]2CC[C@@H]3N(C2)C(=O)CC32CC2)n2ccnc(N)c12 [Compound 18, 4-{8-amino-3-[(6′R,8a′S)-3′-oxohexahydro-5′H-spiro[cyclopropane-1,1′-indolizin]-6′-yl]imidazo[1,5-a]pyrazin-1-yl}-3-ethoxy-N-[4-(trifluoromethyl)pyridin-2-yl]benzamide]	0.127 nM	1110 nM
COc1cc(C(=O)Nc2cc(C(F)(F)F)ccn2)cc(F)c1-c1nc([C@@H]2CC[C@@H]3N(C2)C(=O)C2(CC2)C3(F)F)n2ccnc(N)c12 [Compound 30, 4-{8-amino-3-[(6′R,8a′S)-1′,1′-difluoro-3′-oxohexahydrospiro[cyclopropane-1,2′-indolizin]-6′-yl]imidazo[1,5-a]pyrazin-1-yl}-3-fluoro-5-methoxy-N-[4-(trifluoromethyl)pyridin-2-yl]benzamide]	1.61 nM	1070 nM
CCOc1cc(C(=O)Nc2cc(C(F)(F)F)n(C)n2)cc(F)c1-c1nc(C2CCC3N(C2)C(=O)CC32CC2)n2c(F)cnc(N)c12 (stereo not shown) [Compound 22, 4-[8-amino-5-fluoro-3-(3′-oxohexahydro-5′H-spiro[cyclopropane-1,1′-indolizin]-6′-yl)imidazo[1,5-a]pyrazin-1-yl]-3-ethoxy-5-fluoro-N-[1-methyl-5-(trifluoromethyl)-1H-pyrazol-3-yl]benzamide]	0.269 nM	1430 nM
CCOc1cc(C(=O)Nc2cc(C(F)(F)F)ccn2)ccc1-c1nc([C@@H]2CC[C@@H]3N(C2)C(=O)C2(CC2)C3(F)F)n2ccnc(N)c12 [Compound 27, 4-{8-amino-3-[(6′R,8a′S)-1′,1′-difluoro-3′-oxohexahydrospiro[cyclopropane-1,2′-indolizin]-6′-yl]imidazo[1,5-a]pyrazin-1-yl}-3-ethoxy-N-[4-(trifluoromethyl)pyridin-2-yl]benzamide]	1.6 nM	1140 nM
Nc1nccn2c([C@H]3CC[C@H]4N(C3)C(=O)C3(CC3)C4(F)F)nc(-c3ccc(C(=O)Nc4cc(C(F)(F)F)ccn4)cc3)c12 [Compound 31, 4-{8-amino-3-[(6′S,8a′R)-1′,1′-difluoro-3′-oxohexahydrospiro[cyclopropane-1,2′-indolizin]-6′-yl]imidazo[1,5-a]pyrazin-1-yl}-N-[4-(trifluoromethyl)pyridin-2-yl]benzamide]	0.41 nM	144 nM
COc1cc(C(=O)Nc2cc(C(F)(F)F)ccn2)ccc1-c1nc([C@H]2CC[C@H]3N(C2)C(=O)C2(CC2)C3(F)F)n2ccnc(N)c12 [Compound 29, 4-{8-amino-3-[(6′S,8a′R)-1′,1′-difluoro-3′-oxohexahydrospiro[cyclopropane-1,2′-indolizin]-6′-yl]imidazo[1,5-a]pyrazin-1-yl}-3-methoxy-N-[4-(trifluoromethyl)pyridin-2-yl]benzamide]	1.51 nM	672 nM
CCOc1cc(C(=O)Nc2cc(C(F)(F)F)ccn2)ccc1-c1nc([C@@H]2CC[C@H]3[C@@H](O)C4(CC4)C(=O)N3C2)n2ccnc(N)c12 [Compound 11, 4-{8-amino-3-[(1′S,6′R,8a′S)-1′-hydroxy-3′-oxohexahydrospiro[cyclopropane-1,2′-indolizin]-6′-yl]imidazo[1,5-a]pyrazin-1-yl}-3-ethoxy-N-[4-(trifluoromethyl)pyridin-2-yl]benzamide]	0.701 nM	1990 nM
CCOc1cc(C(=O)Nc2cc(C(F)(F)F)n(C)n2)c(F)cc1-c1nc([C@@H]2CC[C@@H]3N(C2)C(=O)C2(CC2)C3(F)F)n2ccnc(N)c12 [Compound 33, 4-{8-amino-3-[(6′R,8a′S)-1′,1′-difluoro-3′-oxohexahydrospiro[cyclopropane-1,2′-indolizin]-6′-yl]imidazo[1,5-a]pyrazin-1-yl}-5-ethoxy-2-fluoro-N-[1-methyl-5-(trifluoromethyl)-1H-pyrazol-3-yl]benzamide]	9.04 nM	1440 nM
CCOc1cc(C(=O)Nc2cc(C(F)(F)F)ccn2)ccc1-c1nc([C@H]2CC[C@H]3N(C2)C(=O)C2(CC2)C3(F)F)n2ccnc(N)c12 [Compound 2, 4-(8-amino-3-((6′S,8a′R)-1′,1′-difluoro-3′-oxohexahydro-1′H-spiro[cyclopropane-1,2′-indolizin]-6′-yl)imidazo[1,5-a]pyrazin-1-yl)-3-ethoxy-N-(4-(trifluoromethyl)pyridin-2-yl)benzamide]	11.8 nM	895 nM
CCOc1cc(C(=O)Nc2cc(C(F)(F)F)n(C)n2)c(Cl)cc1-c1nc([C@@H]2CC[C@@H]3N(C2)C(=O)C2(CC2)C3(F)F)n2ccnc(N)c12 [Compound 34, 4-{8-amino-3-[(6′R,8a′S)-1′,1′-difluoro-3′-oxohexahydrospiro[cyclopropane-1,2′-indolizin]-6′-yl]imidazo[1,5-a]pyrazin-1-yl}-2-chloro-5-ethoxy-N-[1-methyl-5-(trifluoromethyl)-1H-pyrazol-3-yl]benzamide]	6.95 nM	1580 nM
